Experimental data as given in patent US20150023972A1, “COMBINATION PHARMACEUTICAL COMPOSITION AND METHODS OF TREATING AND PREVENTING THE INFECTIOUS DISEASES” (priority 2010, published 2015).
Read-outs that look alike come from different tables or passages of the source. Marks after values point to notes of the source that are not given here.

Tests used:
influenza = assay: open-label comparative controlled clinical study versus Tamiflu in influenza; assay type: in vivo, human
[1] = system: influenza virus A/California/07/2009swl (H1N1); assay type: in vivo, mice; settings: 10th day after infection; for Survival, % 10LD50: female Balb/c mice, intragastric
[2] = system: influenza virus A/California/07/2009swl (H1N1); assay type: in vivo, mice; settings: 10th day after infection; for Survival, % 10LD50: female Balb/c mice, intragastric; remark: listed apart in the source
[3] = Morning Day 1, 37.0° C. and lower

CCOC(=O)C1=C[C@@H](OC(CC)CC)[C@H](NC(C)=O)[C@@H](N)C1 [Oseltamivir]
Mean values of body temperature, M ± SD (influenza; Evening Day 2): 36.9 ± 0.53 °C | Proportion of patients with normal temperature, % (influenza; Evening Day 2): 45.5% | The number of patients with normal temperature (influenza; Evening Day 2): 5 | Mean values of body temperature, M ± SD (influenza; Evening, Day 1): 37.3 ± 0.71 °C | Proportion of patients with normal temperature, % (influenza; Evening, Day 1): 9.1% | The number of patients with normal temperature (influenza; Evening, Day 1): 1 | Mean values of body temperature, M ± SD (influenza; Evening, Day 3): 36.7 ± 0.46 °C | Proportion of patients with normal temperature, % (influenza; Evening, Day 3): 54.5% | The number of patients with normal temperature (influenza; Evening, Day 3): 6 | Mean values of body temperature, M ± SD (influenza; Evening, Day 4): 36.5 ± 0.38 °C | Proportion of patients with normal temperature, % (influenza; Evening, Day 4): 80.0% | The number of patients with normal temperature (influenza; Evening, Day 4): 8 | Mean values of body temperature, M ± SD (influenza; Evening, Day 5): 36.5 ± 0.21 °C | Proportion of patients with normal temperature, % (influenza; Evening, Day 5): 90.0% | The number of patients with normal temperature (influenza; Evening, Day 5): 9 | Mean values of body temperature, M ± SD (influenza; Evening, Day 6): 36.3 ± 0.19 °C | Proportion of patients with normal temperature, % (influenza; Evening, Day 6): 100.0% | The number of patients with normal temperature (influenza; Evening, Day 6): 7 | Mean values of body temperature, M ± SD (influenza; Evening, Day 7): 36.6 ± 0.12 °C | Proportion of patients with normal temperature, % (influenza; Evening, Day 7): 100.0% | The number of patients with normal temperature (influenza; Evening, Day 7): 4 | Mean values of body temperature, M ± SD (influenza; Morning Day 1): 38.1 ± 0.82 °C | Proportion of patients with normal temperature, % (influenza; [3]): 0% | The number of patients with normal temperature (influenza; [3]): 0 | Mean values of body temperature, M ± SD (influenza; Morning Day 2): 37.3 ± 0.72 °C | Proportion of patients with normal temperature, % (influenza; Morning Day 2): 36.4% | The number of patients with normal temperature (influenza; Morning Day 2): 4 | Mean values of body temperature, M ± SD (influenza; Morning Day 3): 36.9 ± 0.47 °C | Proportion of patients with normal temperature, % (influenza; Morning Day 3): 45.5% | The number of patients with normal temperature (influenza; Morning Day 3): 5 | Mean values of body temperature, M ± SD (influenza; Morning Day 4): 36.8 ± 0.37 °C | Proportion of patients with normal temperature, % (influenza; Morning Day 4): 90.9% | The number of patients with normal temperature (influenza; Morning Day 4): 10 | Mean values of body temperature, M ± SD (influenza; Morning Day 5): 36.7 ± 0.25 °C | Proportion of patients with normal temperature, % (influenza; Morning Day 5): 90.0% | The number of patients with normal temperature (influenza; Morning Day 5): 9 | Mean values of body temperature, M ± SD (influenza; Morning Day 6): 36.6 ± 0.21 °C | Proportion of patients with normal temperature, % (influenza; Morning Day 6): 100.0% | The number of patients with normal temperature (influenza; Morning Day 6): 9 | Mean values of body temperature, M ± SD (influenza; Morning Day 7): 36.5 ± 0.10 °C | Proportion of patients with normal temperature, % (influenza; Morning Day 7): 100.0% | The number of patients with normal temperature (influenza; Morning Day 7): 5 | Mean values of body temperature, M ± SD (influenza; Morning Day 8): 36.5 ± 0.14 °C | Proportion of patients with normal temperature, % (influenza; Morning Day 8): 100.0% | The number of patients with normal temperature (influenza; Morning Day 8): 3 | mean number of antipyretic intakes (influenza; by the morning of Day 4 of the therapy): 7.4±0.90 | Bacterial complications, Otitis, % (influenza; influenza): 0/0% | Bacterial complications, Pneumonia, % (influenza; influenza): 9.1% | Bacterial complications, Total, % (influenza; influenza): 27.2% | Bacterial complications, Tracheitis, % (influenza; influenza): 18.2% | Difference between % of survival in the group that received medication and % of survival in the group that received distilled water ([1]; stage 1): +60% | Survival, % 10LD50 ([1]; stage 1): 80* % | Difference between % of survival in the group that received medication and % of survival in the group that received distilled water ([1]; stage 2): +65% | Survival, % 10LD50 ([1]; stage 2): 70* % | Difference between % of survival in the group that received medication and % of survival in the group that received distilled water ([2]; stage 1): +60% | Survival, % 10LD50 ([2]; stage 1): 80* % | Difference between % of survival in the group that received medication and % of survival in the group that received distilled water ([2]; stage 2): +65% | Survival, % 10LD50 ([2]; stage 2): 70* %
